The results in this text go back to patent US20260092061A1, “COMPOUNDS FOR TARGETED PROTEIN DEGRADATION” (Amphista Therapeutics Limited, priority 2022, published 2026).

The structures appear in SMILES notation. Bounds are passed on as bounds.

The target of assay [1] is T1, BRD9 (Homo sapiens, UniProt Q9H8M2).
T1 sequence (Q9H8M2 1-597): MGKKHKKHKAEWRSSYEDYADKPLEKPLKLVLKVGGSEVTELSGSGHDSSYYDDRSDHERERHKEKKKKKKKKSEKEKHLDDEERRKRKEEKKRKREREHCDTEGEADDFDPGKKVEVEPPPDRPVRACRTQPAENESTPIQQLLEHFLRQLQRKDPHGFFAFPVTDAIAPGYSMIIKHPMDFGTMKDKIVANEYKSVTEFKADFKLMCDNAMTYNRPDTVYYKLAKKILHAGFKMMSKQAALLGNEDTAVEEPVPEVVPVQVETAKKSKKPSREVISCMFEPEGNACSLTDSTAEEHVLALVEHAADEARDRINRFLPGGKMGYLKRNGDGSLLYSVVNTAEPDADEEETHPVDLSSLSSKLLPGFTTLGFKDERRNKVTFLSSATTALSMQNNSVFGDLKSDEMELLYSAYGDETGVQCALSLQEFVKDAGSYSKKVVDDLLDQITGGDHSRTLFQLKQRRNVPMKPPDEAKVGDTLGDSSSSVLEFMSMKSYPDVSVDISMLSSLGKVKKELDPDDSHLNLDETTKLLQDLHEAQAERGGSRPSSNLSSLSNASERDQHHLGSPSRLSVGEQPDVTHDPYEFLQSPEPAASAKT
In words: BRD9 degradation, HiBiT-BRD9 KI HEK293 (LgBiT) cells, NanoGlo Lytic Endpoint assay (Assay Protocol 1). Type of assay: cell-based. The conditions noted are these: BRD9 degradation; for Dmax / Dmax at 1 µM: HEK293; for Dmax at 1 µM: 1 μM compound at 6 h of treatment, read-out: Assay 1 Dmax. The method in brief:
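HiBiT-tagged BRD9 knock-in HEK293 (LgBiT) cells exposed to compounds for 6 h at 37 °C, 5% CO2. Residual BRD9 measured by HiBiT lytic luminescence. % BRD9 remaining normalised to DMSO-treated cells (high) and no-cell wells (low).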
Background: HiBiT is a short tag that completes a luciferase, so light tracks the accessible tagged protein.

In assay [2] the target is T1, BRD9. In words: Degradation of BRD9 (IF), immunofluorescence in MV4-11 cells, 24 hours (Assay Protocol 2). Set-up: A suspension of MV4-11 cells (ATCC CRL-9591) was prepared; host or cells: MV4-11. Type of assay: cell-based. The method in brief: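 MV4-11 cells treated with compound 24 h at 37° C., then fixed, permeabilised and immunostained for BRD9 (anti-BRD9 E4Q3F, Alexa 647 secondary, Hoechst counterstain). High-content imaging quantified nuclear BRD9 signal; % BRD9 remaining normalised to DMSO and 100 nM CFT-8634 controls.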

[3] abbreviates: Assay protocol 1, read-out: DC50.
The mark [4] stands for this setting: Assay protocol 1, read-out: Dmax.
The mark [5] stands for this setting: Assay protocol 2, BRD9 degradation, read-out: DC50.
Setting [6] is: MV4-11, Assay protocol 2, BRD9 degradation, read-out: Dmax.
The mark [7] stands for this setting: MV4-11, Table 4, BRD9 degradation, determined according to Assay Protocol 2, read-out: Dmax^2.
Setting [8] is: Table 4, BRD9 degradation, determined according to Assay Protocol 2, read-out: DC50^2.
[9] abbreviates: Table 2, Assay Protocol 1, 6 h of treatment, read-out: Assay 1 DC50.
Setting [10] is: MV4-11, 24 h, Table 2, BRD9 degradation (IF), Assay Protocol 2, MV4-11 cells, read-out: Assay 2 DCmax.
[11] abbreviates: Table 2, BRD9 degradation (IF), Assay Protocol 2, MV4-11 cells, read-out: Assay 2 DC50.

The DC50 is the midpoint of the concentration-degradation curve. Regarding `COc1cc(-c2cn(C)c(=O)c(C)c2C)cc(OC)c1CN1CCC(Oc2cccc3c2CCN(C(=O)/C(C#N)=C/C(C)(C)C)C3C)CC1` (mixture of isomers) [Compound B44, (E/Z)-2-(5-((1-(2,6-dimethoxy-4-(1,4,5-trimethyl-6-oxo-1,6-dihydropyridin-3-yl)benzyl)piperidin-4-yl)oxy)-1-methyl-1,2,3,4-tetrahydroisoquinoline-2-carbonyl)-4,4-dimethylpent-2-enenitrile], the DC50 at BRD9 [1] (setting [3]) and at BRD9 [2] (setting [5]) was less than 0.00125 µM throughout. Besides, the Dmax on BRD9 [1] (setting [4]) was more than 75%; on BRD9 [2] (setting [6]), 40 to 70%.
`COc1cc(-c2cn(C)c(=O)c(C)c2C)cc(OC)c1CN1CCN(Cc2cccc3c2CCN(C(=O)/C(C#N)=C/c2ccc(C)cn2)C3C)CC1` (mixture of isomers) [Compound B18, (E/Z)-2-(5-((4-(2,6-dimethoxy-4-(1,4,5-trimethyl-6-oxo-1,6-dihydropyridin-3-yl)benzyl)piperazin-1-yl)methyl)-1-methyl-1,2,3,4-tetrahydroisoquinoline-2-carbonyl)-3-(5-methylpyridin-2-yl)acrylonitrile]: on BRD9 [1] (setting [3]), the DC50 fell in the range of 0.00125 to 0.01 µM. The Dmax is 40 to 70% at BRD9 [1] (setting [4]) and 25 to 40% on BRD9 [2] (setting [6]).
`COc1cc(-c2cn(C)c(=O)c(C)c2C)cc(OC)c1CN(C)C(=O)c1ccc2c(c1)CCN(C(=O)/C(C#N)=C/c1cccc(Br)n1)C2C` (mixture of isomers) [Compound B17, (E/Z)-2(3-(6-bromopyridin-2-yl)-2-cyanoacryloyl)-N-(2,6-dimethoxy-4-(1,4,5-trimethyl-6-oxo-1,6-dihydropyridin-3-yl)benzyl)-N,1-dimethyl-1,2,3,4-tetrahydroisoquinoline-6-carboxamide]: the DC50 at BRD9 [1] (setting [3]) and at BRD9 [2] (setting [5]) was 0.025 to 1 µM throughout. Moreover, the Dmax on BRD9 [1] (setting [4]) and on BRD9 [2] (setting [6]) was 40 to 70% each time.
Regarding `COc1cc(-c2cn(C)c(=O)c(C)c2C)cc(OC)c1CN1CCN(C(=O)[C@@H]2CN(C(=O)/C(C#N)=C/c3nccs3)C[C@H]2c2cccc(C)c2)CC1` [Compound B213], the Dmax at BRD9 [1] (Table 4, determined according to Assay Protocol 1, read-out: Dmax^1) fell in the range of 30 to 50%; on BRD9 [2] (setting [7]), 50 to 70%. Moreover, the 50% degradation concentration (DC50) at BRD9 [2] (setting [8]) was more than 0.2 µM.
As for `COc1cc(-c2cn(C)c(=O)c(C)c2C)cc(OC)c1CN(C)Cc1cccc2c1CCN(C(=O)/C(C#N)=C/c1cccc(Br)n1)C2C` (mixture of isomers) [Compound B14, (E/Z)-3-(6-bromopyridin-2-yl)-2-(5-(((2,6-dimethoxy-4-(1,4,5-trimethyl-6-oxo-1,6-dihydropyridin-3-yl)benzyl)(methyl)amino)methyl)-1-methyl-1,2,3,4-tetrahydroisoquinoline-2-carbonyl)acrylonitrile], the 50% degradation concentration (DC50) on BRD9 [1] (setting [3]) and on BRD9 [2] (setting [5]) was 0.00125 to 0.01 µM throughout. Besides, the Dmax on BRD9 [1] (setting [4]) and on BRD9 [2] (setting [6]) was more than 75% throughout.
On to `COc1cc(-c2cn(C)c(=O)c3cnccc23)cc(OC)c1CN1CCN(Cc2cccc3c2CCN(C(=O)/C(C#N)=C/c2ncccc2F)C3C)CC1` (mixture of isomers) [Compound A42, (E/Z)-2-[5-[[4-[[2,6-dimethoxy-4-(2-methyl-1-oxo-2,7-naphthyridin-4-yl)phenyl]methyl]piperazin-1-yl]methyl]-1-methyl-3,4-dihydro-1H-isoquinoline-2-carbonyl]-3-(3-fluoro-2-pyridyl)prop-2-enenitrile], for which the Dmax at 1 µM at BRD9 [1] (Table 2, Assay Protocol 1) lay within 40 to 70%. In addition, the half-maximal degradation concentration (DC50) at BRD9 [1] (setting [9]) is 0.01 to 0.025 µM; at BRD9 [2] (setting [11]) it was less than 0.00125 µM. Besides, the Dmax on BRD9 [2] (setting [10]) fell in the range of 40 to 70%.
Regarding `COCC1(/C=C(\C#N)C(=O)N2CCc3c(CN4CCN(Cc5c(OC)cc(-c6cn(C)c(=O)c(C)c6C)cc5OC)CC45CC5)cccc3C2C)CC1` (mixture of isomers) [Compound B124, (E/Z)-2-(5-((7-(2,6-dimethoxy-4-(1,4,5-trimethyl-6-oxo-1,6-dihydropyridin-3-yl)benzyl)-4,7-diazaspiro[2.5]octan-4-yl)methyl)-1-methyl-1,2,3,4-tetrahydroisoquinoline-2-carbonyl)-3-(1-(methoxymethyl)cyclopropyl)acrylonitrile], the 50% degradation concentration (DC50) at BRD9 [1] (setting [3]) and at BRD9 [2] (setting [5]) was less than 0.00125 µM each time. Also, the Dmax at BRD9 [1] (setting [4]) and at BRD9 [2] (setting [6]) was more than 75% throughout.
Take `COc1cc(-c2cn(C)c(=O)c(C)c2C)ccc1OC1CCN(Cc2cccc3c2CCN(C(=O)/C(C#N)=C/C(C)(C)C)C3C)CC1` (mixture of isomers) [Compound B127, (E/Z)-2-(5-((4-(2-methoxy-4-(1,4,5-trimethyl-6-oxo-1,6-dihydropyridin-3-yl)phenoxy)piperidin-1-yl)methyl)-1-methyl-1,2,3,4-tetrahydroisoquinoline-2-carbonyl)-4,4-dimethylpent-2-enenitrile]: the DC50 on BRD9 [1] (setting [3]) and on BRD9 [2] (setting [5]) was 0.00125 to 0.01 µM each time. For the same molecule, the Dmax at BRD9 [1] (setting [4]) and on BRD9 [2] (setting [6]) was more than 75% in each case.
Turning to `COc1cc(-c2cn(C)c(=O)c(C)c2C)cc(OC)c1CN(C)C(=O)/C(C#N)=C/c1cccc(Br)n1` [BRD9ab, (E/Z)-3-(6-bromopyridin-2-yl)-2-cyano-N-(2,6-dimethoxy-4-(1,4,5-trimethyl-6-oxo-1,6-dihydropyridin-3-yl)benzyl)-N-methylacrylamide], the half-maximal degradation concentration (DC50) was less than 0.025 µM on BRD9 [1] (Table 4, determined according to Assay Protocol 1, read-out: DC50^1) and less than 0.025 µM on BRD9 [2] (setting [8]). Further, the Dmax on BRD9 [2] (setting [7]) lay within 50 to 70%.
With `COc1cc(-c2cn(C)c(=O)c(C)c2C)cc(OC)c1CN1CCN(CC(=O)NCCOc2ccc3c(c2)C(C)N(C(=O)/C(C#N)=C/c2nccs2)CC3)CC1` (mixture of isomers) [Compound B29, (E/Z)—N-(2-((2-(2-cyano-3-(thiazol-2-yl)acryloyl)-1-methyl-1,2,3,4-tetrahydroisoquinolin-7-yl)oxy)ethyl)-2-(4-(2,6-dimethoxy-4-(1,4,5-trimethyl-6-oxo-1,6-dihydropyridin-3-yl)benzyl)piperazin-1-yl)acetamide], the 50% degradation concentration (DC50) on BRD9 [1] (setting [3]) is 0.025 to 1 µM; at BRD9 [2] (setting [5]) it was 0.01 to 0.025 µM. Moreover, the Dmax is 70 to 75% at BRD9 [1] (setting [4]) and more than 75% on BRD9 [2] (setting [6]).
As for `COc1cc(-c2cn(C)c(=O)c3cc(C(=O)NCCOc4ccc5c(c4)CCN(C(=O)/C(C#N)=C/c4nccs4)C5C)sc23)cc(OC)c1CN(C)C` (mixture of isomers) [Compound A74], the Dmax at 1 µM at BRD9 [1] (Table 2, Assay Protocol 1) was in the range of 40 to 70%. Moreover, the values for the DC50 on BRD9 [1] (setting [9]) and at BRD9 [2] (setting [11]) were 0.025 to 0.3 µM and 0.00125 to 0.01 µM, respectively. Also, the Dmax on BRD9 [2] (setting [10]) is 40 to 70%.
`COc1cc(-c2cn(C)c(=O)c3cnccc23)cc(OC)c1CN1CCN(Cc2cccc3c2CCN(C(=O)/C(C#N)=C/C(C)(C)C)C3C)CC1` (mixture of isomers) [Compound A3]: the Dmax at 1 µM at BRD9 [1] (Table 2, Assay Protocol 1) lay within 40 to 70%. Moreover, the half-maximal degradation concentration (DC50) at BRD9 [1] (setting [9]) and at BRD9 [2] (setting [11]) was 0.00125 to 0.01 µM throughout. For the same molecule, the Dmax on BRD9 [2] (setting [10]) was in the range of 40 to 70%.
On to `COc1cc(-c2cn(C)c(=O)c(C)c2C)cc(OC)c1CN1CC2(C1)CN(c1cccc(C3CCCN3C(=O)/C(C#N)=C/C(C)(C)C)c1)C2` (mixture of isomers) [Compound B58, (E/Z)-2-(2-(3-(6-(2,6-dimethoxy-4-(1,4,5-trimethyl-6-oxo-1,6-dihydropyridin-3-yl)benzyl)-2,6-diazaspiro[3.3]heptan-2-yl)phenyl)pyrrolidine-1-carbonyl)-4,4-dimethylpent-2-enenitrile], for which the half-maximal degradation concentration (DC50) on BRD9 [1] (setting [3]) and at BRD9 [2] (setting [5]) was less than 0.00125 µM each time. The Dmax on BRD9 [1] (setting [4]) and on BRD9 [2] (setting [6]) was 40 to 70% each time.
For `COc1cc(-c2cn(C)c(=O)c(C)c2C)cc(OC)c1CN1CCN(Cc2cccc3c2CCN(C(=O)/C(C#N)=C/c2cccc(C(F)(F)F)n2)C3C)CC1` (mixture of isomers) [Compound A53, (E/Z)-2-(5-((4-(2,6-dimethoxy-4-(1,4,5-trimethyl-6-oxo-1,6-dihydropyridin-3-yl)benzyl)piperazin-1-yl)methyl)-1-methyl-1,2,3,4-tetrahydroisoquinoline-2-carbonyl)-3-(6-(trifluoromethyl)pyridin-2-yl)acrylonitrile], the Dmax at 1 µM on BRD9 [1] (Table 2, Assay Protocol 1) lay in the range of 40 to 70%. In addition, the DC50 on BRD9 [1] (setting [9]) was 0.00125 to 0.01 µM. In addition, at BRD9 [2] (setting [10]), the Dmax lay in the range of 40 to 70%.
